According to paper PMC4718634, “Murine GPRC6A Mediates Cellular Responses to L-Amino Acids, but Not Osteocalcin Variants” (PLoS ONE, 2016):
“Also recorded” adds a separate entry of the source. Like-named read-outs stand apart in the source and are kept apart here.

Key:
β-TC6 cells = assay: Insulin release from β-TC6 cells; type: cell-based, murine; settings: S3 Fig A
Experimental: MIN6 or βTC-6 cells were seeded in 24-well plates at 170,000 cells per well in DMEM (containing 4.5g/L glucose, 10 mM HEPES, 100 U/ml penicillin, 100 μg/ml streptomycin and 15% de-complemented FBS) and incubated at 37°C / 5% CO2 for 72 h. Cells were then washed with 500 μl PBS and incubated in 500 μl deprivation media (DMEM with zero glucose, 10 mM HEPES, 1 mM Na-pyruvate, 100 U/ml penicillin, 100 μg/ml streptomycin, 15% de-complemented FBS) for 2 h at 37°C. Media was aspirated and after washing with 500 μl PBS, cells were treated with 250 μl of Krebs buffer (250 mM NaCl, 5.9 mM KCl, 1.2 mM MgCl2, 1.3 mM CaCl2, 25 mM HEPES, 0.1% BSA (w/v), and 2 mM or 16.7 mM glucose; pH 7.4) in the presence or absence of test compound. After incubation for 2 h at 37°C, the assay was terminated by placing the plates on ice and supernatants were transferred to a 96-well plate in preparation for insulin ELISA (Alpco) following manufacturer’s instructions. The cell monolayer was washed twice with 500 μl of PBS and then lysed using 250 μl of 1 N NaOH prior to protein measurement by the method of Bradford (1976).
(§1) Concentration-response data were analysed using a three or four parameter logistic function (Motulsky & Christopoulos, 2004) to generate estimates of agonist potency (LogEC50). Data for all HEK293 assays represent the mean ± SEM of at least three independent experiments (except cell impedance, n = 2). For GLP-1 release, the data represent mean ± SEM of three to five independent experiments (except for OCN, wash; n = 2). For insulin release assays, data represent the mean ± SEM of three independent experiments (except for islet studies; n = 2). Insulin release data were normalised to the response to vehicle in either low or high [glucose]. Statistical analysis for GLP-1 release data were performed by one-way ANOVA, followed by Sidak’s multiple comparisons test (treating wash / no wash datasets separately). Statistical analyses for insulin release data were performed by two-way ANOVA (with [glucose] and drug treatment as group variables), followed by Sidak’s multiple comparisons test. Where only high [glucose] groups were evaluated, statistical analysis was by one-way ANOVA followed by Sidak’s multiple comparisons test.

mGPRC6A (mouse GPRC6A) = target: T1, mGPRC6A (mouse GPRC6A) (Mus musculus, UniProt Q8K4Z6); assay: Label-free cell impedance (xCELLigence), tetracycline-induced FlpIn-TREx-HEK293-mGPRC6A cells; type: cell-based
T1 sequence (Q8K4Z6 21-928): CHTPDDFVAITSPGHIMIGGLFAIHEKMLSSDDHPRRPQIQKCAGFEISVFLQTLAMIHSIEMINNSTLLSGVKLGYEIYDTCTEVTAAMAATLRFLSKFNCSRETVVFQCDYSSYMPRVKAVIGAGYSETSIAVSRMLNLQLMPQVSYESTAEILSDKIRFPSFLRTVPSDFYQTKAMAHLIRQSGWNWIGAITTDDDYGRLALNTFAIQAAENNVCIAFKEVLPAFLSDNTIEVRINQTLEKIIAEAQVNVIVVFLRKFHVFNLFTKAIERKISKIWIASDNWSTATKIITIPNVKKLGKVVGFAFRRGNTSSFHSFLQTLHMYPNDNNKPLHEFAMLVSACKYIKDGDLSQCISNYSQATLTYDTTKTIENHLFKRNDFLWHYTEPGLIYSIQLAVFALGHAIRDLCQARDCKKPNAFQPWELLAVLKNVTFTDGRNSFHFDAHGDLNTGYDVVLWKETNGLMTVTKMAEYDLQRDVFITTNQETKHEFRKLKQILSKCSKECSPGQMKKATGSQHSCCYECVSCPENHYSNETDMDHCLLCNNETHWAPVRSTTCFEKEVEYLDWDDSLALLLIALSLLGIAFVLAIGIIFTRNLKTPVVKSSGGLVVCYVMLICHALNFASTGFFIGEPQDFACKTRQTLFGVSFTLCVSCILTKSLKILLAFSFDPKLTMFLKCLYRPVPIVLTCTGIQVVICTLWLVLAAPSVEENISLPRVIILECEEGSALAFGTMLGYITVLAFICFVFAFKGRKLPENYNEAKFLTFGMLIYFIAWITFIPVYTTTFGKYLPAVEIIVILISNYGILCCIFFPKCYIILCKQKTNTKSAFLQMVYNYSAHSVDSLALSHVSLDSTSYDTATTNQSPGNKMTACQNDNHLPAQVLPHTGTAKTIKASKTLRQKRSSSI
Experimental: 2.5 x 10^7 FlpIn-TREx-HEK293-mGPRC6A cells were seeded in a T175 flask and incubated overnight at 37°C in 5% CO2. Cells were then transfected with 35 μg of plasmid DNA (GαqG66D) with Lipofectamine LTX according to manufacturer's instructions, then incubated for 24h at 37°C in 5% CO2. Prior to the experiment, a background reading for each E-plate 96 (Bio-Rad, CA, USA) was measured after addition of 100 μl DMEM + 10% FBS per well. Cells were recovered using Versene and seeded at a 10^5 cells/well density in 200 μl DMEM + 10% FBS (containing 1 μg/ml tetracycline where indicated). Cells were washed 2 x 2 h in HBSS buffer (pH 7.2) containing 20 mM HEPES, 1 mM CaCl2 and 0.1% BSA (w/v) in a total volume of 180 μl. Test compounds (20 μl at 10x final concentration) were added to the plate and cell impedance was monitored for 3 h. Cell index was normalised to the buffer response (minus the baseline response at zero time point).
as §1

mC6A = settings: cited from earlier work
Source text: Supplement pone.0146846.s004.docx, table 1 | column: Functional assay

Row | Compound | glucose-sensitive insulin secretion, L-ornithine (β-TC6 cells; L-ornithine 20 mM) | EC50 (mGPRC6A (mouse GPRC6A); tetracycline-induced, GαqG66D, xCELLigence, n = 2, read-out: pEC50, cell impedance (converted)) [µM] | cell impedance (cell index) response (mGPRC6A (mouse GPRC6A); tetracycline-induced, xCELLigence, Fig 4) | cAMP response (mC6A; ref [3] (supplement list)) | cAMP response (mC6A; ref [13] (supplement list)) | pERK response (mC6A; ref [13] (supplement list)) | insulin secretion, OCN (β-TC6 cells; OCN 0.03–100 ng/ml, both glucose concentrations) | xCELLigence response (summary) (mGPRC6A (mouse GPRC6A); S1 Table) | IP-One HTRF response to EC25 L-Orn + OCN (mC6A; + GqG66D, ref [13] (supplement list)) | cAMP accumulation response (mC6A; ref [5] (supplement list)) | IP-One HTRF response (mC6A; ref [13] (supplement list))
1 | NCCC[C@H](N)C(=O)O [L-ornithine] | no significant effect | 63.1 | only mGPRC6A-expressing cells responded to L-ornithine; also recorded: increases cellular impedance only in tetracycline-induced cells | [^3H]IP turnover - co-transfection with Gαqs5, GαqG66D, Gαq or GαqG66Ds5 enabled response to L-aa but Gαqi, Gαqz, Gαqo did not cAMP – no increase or decrease in response to L-Orn | no response | response | – | – | – | – | –
2 | OCN: osteoblast-derived peptide, osteocalcin; variant not specified at the place (YLYQWLGAPVPYPDPLEPRREVCELNPDCDELADHIGFQEAYRRFYGPV; UniProt P02818 52-100, looked up) | – | – | – | – | no response | No specific response | no effect on insulin release; also recorded: failed to induce GSIS | No response | No response | cAMP accumulation in response to OCN | No response
